US20260250325A1, “Antiviral Polypeptide Membrane Fusion Inhibitor, and Preparation Method and Application Thereof” (priority 2025, published 2026)
Where a SMILES comes first, the peptide text is derived from it. The star is where a group is joined. Succinyl(4-O-cholesteryl) = CC(C)CCC[C@@H](C)[C@H]1CC[C@H]2[C@@H]3CC=C4C[C@@H](OC(=O)CCC(=O)*)CC[C@]4(C)[C@H]3CC[C@]12C

Tests used:
hPIV-N51 (139-189) = molecular target: T1, hPIV-N51 (139-189) (Human parainfluenza 3 virus, UniProt P06828); experiment: SPR affinity to hPIV-N51 coupled on CM5 chip; type: binding
T1 construct: hPIV-N51 (139-189)
Procedure: hMPV and hPIV were two viruses having a typical Class I fusion protein-F protein. An F protein precursor F0 was cracked into F1 and F2 subunits. […] When the compound flowed through a chip surface, changes in an SPR signal were monitored in real time, binding and dissociation processes were recorded, and a binding rate constant (ka) and a dissociation rate constant (kd) were further obtained through kinetic analysis, thereby calculating an equilibrium dissociation constant (KD=kd/ka).
A CM5 chip with a catalog number 29149603, an amino coupling reagent kit with a catalog number BR100050, HBS-EP+Buffer (10×), sodium acetate (pH 4.0), and a 10 mM glycine-HCl buffer (pH 2.0) were all purchased from GE Health.
CM5 chip coupling: Channels 2 and 4 of the CM5 chip were activated for 7 min by using a freshly-prepared mixture of 50 mM Hydroxy succinimide (NHS) and 200 mM 1-(3-Dimethylaminopropyl)-3-ethylcarbodiimide (EDC) according to 1:1; and then, hMPV-N46 or hPIV-N51 was diluted and dissolved with sodium acetate with 4.0 pH to a concentration of 30 μM, with a flow rate of 10 μl/min and time of 600 s. An experimental buffer was HBS-EP+buffer (1×). Finally, the chip was blocked with 1 M ethanolamine. The instrument was set to a temperature of 25° C.
Affinity detection: the buffer used in the experiment was HBS-EP+buffer (1×), and a multi-cycle dynamic mode was used. Channels 1 and 3 of the chip served as blank reference channels; polypeptides to be detected sequentially flowed through Channels 2 and 4 at concentrations of 0 μM, 0.04 µM, 0.12 µM, 0.37 μM, 1.11 µM, 3.33 µM, 10 µM, and 30 μM; the flow rate was 30 μl/min, binding was performed for 180 s, and dissociation was performed for 120 s. Finally, the chip was regenerated by injecting 10 mM glycine (pH 2.0). The instrument was set to a temperature of 25° C.

hPIV3 C243 virus strain = type: cell-based, hPIV; conditions: LLC-MK2 cells, hPIV3 C243, plaque reduction; read-out: EC50 against hPIV3 virus
Procedure: Rhesus monkey kidney cells (LLC-MK2) were sourced from the ATCC, with a catalog number CCL-7.1. The cells were cultured in a DMEM culture solution in which 10% fetal bovine serum, 1% non-essential amino acids, 1% sodium pyruvate, 1% L-glutamine, 100 U/ml penicillin, and 100 μg/ml streptomycin were added.
An HPIV-3 plaque experiment culture medium consisted of a DMEM culture solution added with 2% fetal bovine serum, 1% non-essential amino acids, 1% sodium pyruvate, 1% L-glutamine, 100 U/ml penicillin, and 100 μg/ml streptomycin.
The hPIV Type 3 (hPIV3 C243) was sourced from the ATCC, with a catalog number VR-93.
This study used the plaque reduction experiment to detect the in-vitro activity of the test sample against the hPIV3 C243 virus strain, and Human Anti-HPIV3 Monoclonal Antibody, clone PIA174 was an experimental system control. The test sample and a system experimental antibody were tested at 8 concentrations in duplicated wells.
The LLC-MK2 cells were digested with trypsin and then diluted to a concentration of 400,000 cells per milliliter by using a cell culture solution containing 2% serum. The diluted cells were added to a 96-well cell test board, with 100 μL per well, corresponding to 40,000 cells per well. The cells were cultured overnight in a 37° C. incubator with 5% CO2.
On the next day, the sample diluted at a fold ratio and an equal volume of virus (approximately 200 PFU per well) were well mixed and incubated at 37° C. in 5% CO2 for 1 hour. Then, the culture solution in the 96-well cell test board was discarded, the sample virus mixed solution (100 μL) was added to the 96-well cell culture plate, and incubated at 37° C. in 5% CO2 for 2 hours. After 2 h, the sample virus mixed solution was discarded, 200 μL of an experiment culture medium containing the test sample with a corresponding concentration was added, and the culture solution contained 0.8% CMC. A final concentration of DMSO in the culture solution was 0.5%. A control antibody was directly added to the experiment culture solution containing 0.8% CMC. A cell control (cells, without compound treatment or viral infection) and a viral control (cell infection virus, without compound treatment) were set. The cells were cultured for 1 day in the 37° C. incubator with 5% CO2.
The cells were fixed with 4% paraformaldehyde, and then permeabilization was performed with 0.5% Triton X-100. After the plate was washed with DPBS, a hPIV specific antibody (1:2000 dilution) was added and incubated at 37° C. for 1.5 h. Then, a secondary antibody (1:500 dilution) was added and incubated at 37° C. for 1 hour. The secondary antibody was discarded, a TrueBlue solution was added, dyeing was performed for approximately 10 minutes; and the plate was washed with running water and then air-dried, and the number of spots in each well was counted by using a microplate imaging counter.
Raw data was used for calculating the antiviral activity of the samples, and a calculation formula was shown as follows.
% inhibition rate=100−(sample value-cell control average value)/(virus control average value-cell control average value)×100
Non-linear fitting analysis was performed on the inhibition rate of the sample by using GraphPad Prism (version 10), so as to calculate an EC50 value for the sample. A fitting formula was log (inhibitor) vs. response-Variable slope (four parameters).

T1 sequence (P06828 139-189): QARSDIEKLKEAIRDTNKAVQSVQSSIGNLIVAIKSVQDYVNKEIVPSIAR

| Structure (SMILES) | Kd (hPIV-N51 (139-189)) [µM] | EC50 (hPIV3 C243 virus strain) [µM] |
| --- | --- | --- |
| CC[C@H](C)[C@H](NC(=O)[C@H](CCCCN)NC(=O)[C@H](CCCCN)NC(=O)[C@H](CC(C)C)NC(=O)[C@H](CO)NC(=O)[C@H](CCC(=O)O)NC(=O)[C@H](CCC(=O)O)NC(=O)[C@@H](NC(=O)[C@H](CCCCN)NC(=O)[C@H](CCCCN)NC(=O)[C@H](CC(N)=O)NC(=O)[C@@H](NC(=O)[C@H](CCC(=O)O)NC(=O)[C@H](CCC(=O)O)NC(=O)[C@@H](NC(=O)[C@H](CCCCN)NC(=O)[C@H](CCCCN)NC(=O)[C@H](CC(=O)O)NC(=O)[C@H](Cc1ccccc1)NC(=O)[C@H](CCC(=O)O)NC(=O)[C@H](CC(=O)O)NC(=O)[C@H](CO)NC(C)=O)[C@@H](C)CC)C(C)C)[C@@H](C)CC)C(=O)N[C@@H](CCC(=O)O)C(=O)N[C@@H](CCC(=O)O)C(=O)N[C@@H](CO)C(=O)N[C@@H](CC(=O)O)C(=O)N[C@@H](CCCCN)C(=O)N[C@@H](CCCCN)C(=O)N[C@@H](CC(C)C)C(=O)NCC(=O)N[C@@H](CO)C(=O)NCC(=O)N[C@@H](CO)C(=O)NCC(=O)N[C@@H](CCCCNC(=O)CCC(=O)O[C@H]1CC[C@@]2(C)C(=CC[C@H]3[C@@H]4CC[C@H]([C@H](C)CCCC(C)C)[C@@]4(C)CC[C@@H]32)C1)C(N)=O [Compound 20] (Ac-SDEFDKKIEEVNKKIEESLKKIEESDKKLGSGSGK(Succinyl(4-O-cholesteryl))-NH2) | 6.8 | 0.0595 |
| CC[C@H](C)[C@H](NC(=O)[C@H](CCCCN)NC(=O)[C@H](CCC(=O)O)NC(=O)[C@H](CC(C)C)NC(=O)[C@H](CO)NC(=O)[C@H](CCC(N)=O)NC(=O)[C@H](CC(N)=O)NC(=O)[C@@H](NC(=O)[C@H](CCCCN)NC(=O)[C@H](CCC(=O)O)NC(=O)[C@H](CC(N)=O)NC(=O)[C@@H](NC(=O)[C@H](CCC(N)=O)NC(=O)[C@H](CO)NC(=O)[C@H](C)NC(=O)[C@H](CC(=O)O)NC(=O)[C@H](Cc1ccccc1)NC(=O)[C@@H](NC(=O)[C@H](CC(C)C)NC(=O)[C@H](CCC(=O)O)NC(=O)[C@H](CC(=O)O)NC(=O)[C@H](Cc1ccc(O)cc1)NC(C)=O)C(C)C)C(C)C)[C@@H](C)CC)C(=O)N[C@@H](CCCNC(=N)N)C(=O)N[C@@H](CCCCN)C(=O)N[C@@H](CO)C(=O)N[C@@H](CC(=O)O)C(=O)N[C@@H](CCC(=O)O)C(=O)N[C@@H](CC(C)C)C(=O)N[C@@H](CC(C)C)C(=O)N[C@@H](Cc1c[nH]cn1)C(=O)N[C@@H](CC(N)=O)C(=O)N[C@H](C(=O)NCC(=O)N[C@@H](CO)C(=O)NCC(=O)N[C@@H](CO)C(=O)NCC(=O)N[C@@H](CCCCNC(=O)CCC(=O)O[C@H]1CC[C@@]2(C)C(=CC[C@H]3[C@@H]4CC[C@H]([C@H](C)CCCC(C)C)[C@@]4(C)CC[C@@H]32)C1)C(N)=O)C(C)C [Compound 25] (Ac-YDELVFDASQVNEKINQSLEKIRKSDELLHNVGSGSGK(Succinyl(4-O-cholesteryl))-NH2) | 74.6 | 0.0294 |
| CC[C@H](C)[C@H](NC(=O)[C@H](CO)NC(=O)[C@H](C)NC(=O)[C@H](CC(=O)O)NC(=O)[C@H](Cc1ccccc1)NC(=O)[C@H](CCC(=O)O)NC(=O)[C@H](CC(=O)O)NC(C)=O)C(=O)N[C@@H](CO)C(=O)N[C@@H](CCC(N)=O)C(=O)N[C@H](C(=O)N[C@@H](CC(N)=O)C(=O)N[C@@H](CCC(=O)O)C(=O)N[C@@H](CCCCN)C(=O)N[C@H](C(=O)N[C@@H](CC(N)=O)C(=O)N[C@@H](CCC(N)=O)C(=O)N[C@@H](CO)C(=O)N[C@@H](CC(C)C)C(=O)N[C@@H](CCC(=O)O)C(=O)N[C@@H](CCC(=O)O)C(=O)N[C@H](C(=O)N[C@@H](CCCNC(=N)N)C(=O)N[C@@H](CCCCN)C(=O)N[C@@H](CO)C(=O)N[C@@H](CC(=O)O)C(=O)N[C@@H](CCC(=O)O)C(=O)N[C@@H](CC(C)C)C(=O)N[C@@H](CC(C)C)C(=O)N[C@@H](Cc1c[nH]cn1)C(=O)N[C@@H](CC(N)=O)C(=O)N[C@@H](CCC(=O)O)C(=O)N[C@@H](C)C(=O)N[C@@H](C)C(=O)N[C@@H](C)C(=O)N[C@@H](CCCCN)C(=O)N[C@@H](CCCCNC(=O)CCC(=O)O[C@H]1CC[C@@]2(C)C(=CC[C@H]3[C@@H]4CC[C@H]([C@H](C)CCCC(C)C)[C@@]4(C)CC[C@@H]32)C1)C(N)=O)[C@@H](C)CC)[C@@H](C)CC)C(C)C [Compound 28] (Ac-DEFDASISQVNEKINQSLEEIRKSDELLHNEAAAKK(Succinyl(4-O-cholesteryl))-NH2) | 983 | 0.0544 |
